Assay results published in PubChem BioAssay AID248 (DTP/NCI, 2004).
Toxic doses and inconclusive results are not listed.

System: L1210 leukemia ip in BDF1 mice, survival T/C
Test: NCI In Vivo Anticancer Drug Screen. Data for tumor model L1210 Leukemia (intraperitoneal) in B6D2F1 (BDF1) mice
Conditions: endpoint: mean survival time, higher = longer survival
Outline: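 In this screen, tumor-bearing mice given compound are compared to those given vehicle, and their survival values are reported as a treated-to-control quotient.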

[1] = dose: 100.0 mg/kg/injection, schedule: Q01DX009 (ip), vehicle: Klucel (hydroxypropylcellulose) (HPC)
[2] = dose: 100.0 mg/kg/injection, schedule: Q04DX003 (ip), vehicle: Klucel (hydroxypropylcellulose) (HPC)
[3] = dose: 200.0 mg/kg/injection, schedule: Q01DX009 (ip), vehicle: Klucel (hydroxypropylcellulose) (HPC)
[4] = dose: 200.0 mg/kg/injection, schedule: Q04DX003 (ip), vehicle: Klucel (hydroxypropylcellulose) (HPC)
[5] = dose: 400.0 mg/kg/injection, schedule: Q01DX009 (ip), vehicle: Klucel (hydroxypropylcellulose) (HPC)
[6] = dose: 400.0 mg/kg/injection, schedule: Q04DX003 (ip), vehicle: Klucel (hydroxypropylcellulose) (HPC)
[7] = dose: 100.0 mg/kg/injection, schedule: Q01DX001 (ip), vehicle: Klucel (hydroxypropylcellulose) (HPC)
[8] = dose: 200.0 mg/kg/injection, schedule: Q01DX001 (ip), vehicle: Klucel (hydroxypropylcellulose) (HPC)
[9] = dose: 400.0 mg/kg/injection, schedule: Q01DX001 (ip), vehicle: Klucel (hydroxypropylcellulose) (HPC)
[10] = dose: 25.0 mg/kg/injection, schedule: Q01DX009 (ip), vehicle: gum acacia
[11] = dose: 25.0 mg/kg/injection, schedule: Q04DX003 (ip), vehicle: gum acacia
[12] = dose: 50.0 mg/kg/injection, schedule: Q01DX009 (ip), vehicle: gum acacia
[13] = dose: 50.0 mg/kg/injection, schedule: Q04DX003 (ip), vehicle: gum acacia
[14] = dose: 100.0 mg/kg/injection, schedule: Q04DX003 (ip), vehicle: saline with Tween-80
[15] = dose: 200.0 mg/kg/injection, schedule: Q04DX003 (ip), vehicle: saline with Tween-80
[16] = dose: 400.0 mg/kg/injection, schedule: Q04DX003 (ip), vehicle: saline with Tween-80
[17] = dose: 100.0 mg/kg/injection, schedule: Q01DX001 (ip), vehicle: saline
[18] = dose: 200.0 mg/kg/injection, schedule: Q01DX001 (ip), vehicle: saline
[19] = dose: 400.0 mg/kg/injection, schedule: Q01DX001 (ip), vehicle: saline
[20] = dose: 200.0 mg/kg/injection, schedule: Q01DX009 (ip), vehicle: saline with Tween-80
[21] = dose: 400.0 mg/kg/injection, schedule: Q01DX009 (ip), vehicle: saline with Tween-80
[22] = dose: 100.0 mg/kg/injection, schedule: Q01DX009 (ip), vehicle: saline
[23] = dose: 100.0 mg/kg/injection, schedule: Q04DX003 (ip), vehicle: saline
[24] = dose: 200.0 mg/kg/injection, schedule: Q01DX009 (ip), vehicle: saline
[25] = dose: 200.0 mg/kg/injection, schedule: Q04DX003 (ip), vehicle: saline
[26] = dose: 400.0 mg/kg/injection, schedule: Q01DX009 (ip), vehicle: saline
[27] = dose: 400.0 mg/kg/injection, schedule: Q04DX003 (ip), vehicle: saline

COc1ccc2c(O)coc2c1
T/C [1]: 100 % of control | T/C [2]: 104 % of control | T/C [3]: 101 % of control | T/C [4]: 102 % of control | T/C [5]: 96 % of control | T/C [6]: 93 % of control

C/C(=N\NC(N)=O)C1CCC(c2ccccc2)CC1 (stereo not given)
T/C [7]: 103 % of control | T/C [1]: 90 % of control | T/C [8]: 96 % of control | T/C [3]: 86 % of control | T/C [9]: 92 % of control | T/C [5]: 91 % of control

CN(NC(=O)CC(=O)NN(C)C(=S)c1ccc(Cl)cc1)C(=S)c1ccc(Cl)cc1
T/C [10]: 96 % of control | T/C [11]: 92 % of control | T/C [12]: 91 % of control | T/C [13]: 93 % of control | T/C (dose: 100.0 mg/kg/injection, schedule: Q01DX009 (ip), vehicle: gum acacia): 89 % of control | T/C (dose: 100.0 mg/kg/injection, schedule: Q04DX003 (ip), vehicle: gum acacia): 90 % of control | T/C (dose: 200.0 mg/kg/injection, schedule: Q04DX003 (ip), vehicle: gum acacia): 86 % of control | T/C (dose: 400.0 mg/kg/injection, schedule: Q04DX003 (ip), vehicle: gum acacia): 92 % of control

Cc1ccc(S(=O)(=O)Nc2ccc(C(=O)O)c(Cl)c2)cc1
T/C [14]: 108 % of control | T/C [15]: 92 % of control | T/C [16]: 104 % of control

Cn1c(=O)c2[nH]c(CC3CCCC3)nc2n(C)c1=O
T/C (dose: 50.0 mg/kg/injection, schedule: Q01DX001 (ip), vehicle: saline): 104 % of control | T/C [17]: 104 % of control | T/C [18]: 101 % of control | T/C [19]: 95 % of control

CCCCCCCCCCCCc1ccc2c(c1)CCc1ccccc1-2
T/C (dose: 100.0 mg/kg/injection, schedule: Q01DX001 (ip), vehicle: carboxymethylcellulose (CMC)): 97 % of control | T/C (dose: 200.0 mg/kg/injection, schedule: Q01DX001 (ip), vehicle: carboxymethylcellulose (CMC)): 92 % of control | T/C (dose: 400.0 mg/kg/injection, schedule: Q01DX001 (ip), vehicle: carboxymethylcellulose (CMC)): 90 % of control

CC(=O)Nc1ccc(/C=C/C(=O)c2ccc([N+](=O)[O-])cc2)cc1
T/C (dose: 100.0 mg/kg/injection, schedule: Q01DX009 (ip), vehicle: saline with Tween-80): 94 % of control | T/C [14]: 91 % of control | T/C [20]: 94 % of control | T/C [15]: 94 % of control | T/C [21]: 94 % of control | T/C [16]: 90 % of control

O=[N+]([O-])c1cc(S(=O)(=O)O)cc(S(=O)(=O)O)c1O
T/C [22]: 102 % of control | T/C [23]: 94 % of control | T/C [24]: 94 % of control | T/C [25]: 100 % of control | T/C [26]: 91 % of control | T/C [27]: 93 % of control

CCC(=O)c1ccc(NC(C)=O)cc1
T/C [1]: 100 % of control | T/C [2]: 99 % of control | T/C [3]: 100 % of control | T/C [4]: 96 % of control | T/C [5]: 103 % of control | T/C [6]: 96 % of control

COc1ccc(OC)c(NC(=O)Nc2ccc(O)cc2)c1
T/C [14]: 98 % of control | T/C [15]: 98 % of control | T/C [16]: 93 % of control

CCSCCSCC
T/C [22]: 98 % of control | T/C [23]: 101 % of control | T/C [24]: 98 % of control | T/C [25]: 97 % of control | T/C [26]: 96 % of control | T/C [27]: 97 % of control

O=c1cc(NCc2ccccc2[N+](=O)[O-])[nH]c(=O)[nH]1
T/C [17]: 95 % of control | T/C [18]: 100 % of control | T/C [19]: 98 % of control

CCOC(=O)C12CCCCC1=CC1(CC2)SCCS1 (stereo not given)
T/C (dose: 100.0 mg/kg/injection, schedule: Q01DX009 (ip), vehicle: acetone): 88 % of control | T/C (dose: 200.0 mg/kg/injection, schedule: Q01DX009 (ip), vehicle: acetone): 91 % of control | T/C (dose: 400.0 mg/kg/injection, schedule: Q01DX009 (ip), vehicle: acetone): 246 % of control

S=C(Nc1nccs1)Nc1nccs1
T/C [7]: 100 % of control | T/C [8]: 97 % of control | T/C [9]: 89 % of control

CNC(=O)c1cc(/C=C/c2c[nH]c3ccccc23)c[n+](C)c1
T/C (dose: 100.0 mg/kg/injection, schedule: Q01DX001 (ip), vehicle: other): 102 % of control | T/C (dose: 200.0 mg/kg/injection, schedule: Q01DX001 (ip), vehicle: other): 100 % of control | T/C (dose: 400.0 mg/kg/injection, schedule: Q01DX001 (ip), vehicle: other): 94 % of control

c1ccc(-c2ccc([Si](c3ccc(-c4ccccc4)cc3)(c3ccc(-c4ccccc4)cc3)c3ccc(-c4ccccc4)cc3)cc2)cc1
T/C (dose: 12.5 mg/kg/injection, schedule: Q01DX009 (ip), vehicle: gum acacia): 95 % of control | T/C (dose: 12.5 mg/kg/injection, schedule: Q04DX003 (ip), vehicle: gum acacia): 106 % of control | T/C [10]: 100 % of control | T/C [11]: 95 % of control | T/C [12]: 86 % of control | T/C [13]: 92 % of control

CC(C)(C)N=NC1(S(=O)(=O)c2ccccc2)CCCCC1
T/C [2]: 98 % of control | T/C [4]: 93 % of control | T/C [6]: 91 % of control

COC(=O)CS(=O)(=O)C(C)(C)C(=O)c1ccccc1
T/C (dose: 37.5 mg/kg/injection, schedule: Q01DX009 (ip), vehicle: saline): 96 % of control | T/C (dose: 75.0 mg/kg/injection, schedule: Q01DX009 (ip), vehicle: saline): 92 % of control | T/C (dose: 150.0 mg/kg/injection, schedule: Q01DX009 (ip), vehicle: saline): 100 % of control | T/C (dose: 300.0 mg/kg/injection, schedule: Q01DX009 (ip), vehicle: saline): 94 % of control

C=CCOC(OCC=C)C(OCC=C)OCC=C
T/C [20]: 97 % of control | T/C [21]: 104 % of control

CCOc1ccc(-n2c(O)c(N=Nc3ccccc3C)c(=O)n(-c3ccc(OC)cc3)c2=S)cc1
T/C [7]: 94 % of control | T/C [8]: 95 % of control | T/C [9]: 89 % of control

O=C1CC2OCC=C3C[N+]4(SS(=O)(=O)[O-])CCC56c7ccccc7N1C5C2C3CC64 (stereo not given)
T/C (dose: 0.15 mg/kg/injection, schedule: Q01DX009 (ip), vehicle: saline): 93 % of control | T/C (dose: 0.31 mg/kg/injection, schedule: Q01DX009 (ip), vehicle: saline): 95 % of control | T/C (dose: 0.31 mg/kg/injection, schedule: Q04DX003 (ip), vehicle: acetone): 108 % of control | T/C (dose: 0.62 mg/kg/injection, schedule: Q01DX009 (ip), vehicle: saline): 93 % of control | T/C (dose: 0.62 mg/kg/injection, schedule: Q04DX003 (ip), vehicle: acetone): 108 % of control | T/C (dose: 0.92 mg/kg/injection, schedule: Q01DX009 (ip), vehicle: saline): 92 % of control | T/C (dose: 1.25 mg/kg/injection, schedule: Q01DX001 (ip), vehicle: saline): 98 % of control | T/C (dose: 1.25 mg/kg/injection, schedule: Q04DX003 (ip), vehicle: acetone): 88 % of control | T/C (dose: 1.4 mg/kg/injection, schedule: Q01DX009 (ip), vehicle: saline): 92 % of control

NNC(=O)CCCc1ccccc1
T/C (dose: 25.0 mg/kg/injection, schedule: Q01DX009 (ip), vehicle: saline): 97 % of control | T/C (dose: 50.0 mg/kg/injection, schedule: Q01DX009 (ip), vehicle: saline): 103 % of control | T/C [17]: 105 % of control

CC(C)Cn1cnc2c(SCc3ccc(Cl)cc3Cl)nc(N)nc21
T/C [22]: 100 % of control | T/C (dose: 100.0 mg/kg/injection, schedule: Q04DX003 (ip), vehicle: acetone): 92 % of control | T/C [24]: 102 % of control | T/C (dose: 200.0 mg/kg/injection, schedule: Q04DX003 (ip), vehicle: acetone): 91 % of control | T/C [26]: 97 % of control | T/C (dose: 400.0 mg/kg/injection, schedule: Q04DX003 (ip), vehicle: acetone): 89 % of control
